These results are taken from patent publication US12052991B2, “Substituted pyridinyloxybenzenes and salts thereof and use thereof as herbicidal agents” (Bayer Aktiengesellschaft, priority 2018, dated 2024).

Common to all, as to assay type: in vivo
Experiment [1] relates to harmful plants AGSTE, DIPTE, LOLPE, MATCH, POAAN, SETVI, STEME and VERPE. The experiment can be described thus: Herbicidal early post-emergence action, summary of Tables A1-A8. To be noted: application rate of 1900 g of active ingredient per hectare; summary in words. As to the method:
(§1) Seeds of monocotyledonous and dicotyledonous weed plants were placed in 96-well microtiter plates in quartz sand and grown in a climatized chamber under controlled growth conditions. 5 to 7 days after sowing, the test plants were treated at the cotyledon stage. The compounds according to the invention, formulated in the form of emulsion concentrates (EC), were applied with a water application rate of the equivalent of 2200 liters per hectare. After the test plants had been left to stand in the climatized chamber for 9 to 12 days under optimum growth conditions, the effect of the preparations was scored visually in comparison to untreated controls. For example, 100% activity=the plants have died, 0% activity=like control plants.
Tables A1 to A8 below show the effects of selected compounds of the general formula (I) according to Table 1 on various harmful plants and an application rate corresponding to 1900 g/ha, which were obtained by the experimental procedure mentioned above.
As the results of Tables A1-A8 show, compounds no.

Another experiment concerns Agrostis tenuis (AGSTE). The experiment can be described thus: Herbicidal early post-emergence action (Table A1). Particulars: 1900 g/ha; scored visually 9 to 12 days after treatment; 100% = plants have died, 0% = like control plants. As to the method:
as §1, with “plants. Tables A1 to A8 below show the effects of selected compounds of the general formula (I) according to Table 1 on various harmful plants and an application rate corresponding to 1900 g/ha, which were obtained by the experimental procedure mentioned above.” for “plants.”

For experiment [2], the system named is harmful plants ABUTH, AMARE, ECHCG, LOLRI, MATIN, POAAN, SETVI, STEME, ALOMY, DIGSA, KCHSC and VERPE. The experiment can be described thus: Herbicidal post-emergence action, summary of Tables B1-B12. Particulars: application rate of 1280 or 320 g of active ingredient per hectare; summary in words. The procedure, abridged: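 Greenhouse weeds in sandy loam treated post-emergence at the one-leaf stage, 2–3 weeks after sowing, with WP or EC formulations sprayed with 0.5% additive at 600 L/ha water, 1280 or 320 g/ha. Damage rated visually after about 3 weeks versus untreated controls (0% = like control, 100% = dead).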

In experiment [3] the test system is Amaranthus retroflexus (AMARE). Description: Herbicidal pre-emergence action, test C (Table C6). To be noted: visual scoring after about 3 weeks, 100% = plants have died, 0% = like control plants. The method in brief:
(§2)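 Sandy loam, doubly sown pots; surface spray pre-emergence; 1280 or 320 g/ha; 0.5% additive; 600 L/ha. Greenhouse, ~3 weeks. Visual % vs untreated.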

Experiment [4] deals with Matricaria inodora (MATIN). The experiment can be described thus: Herbicidal pre-emergence action, test C (Table C7). To be noted: dosage 1280 g/ha; visual scoring after about 3 weeks; 100% = plants have died, 0% = like control plants. The procedure, abridged: as §2
Experiment [5] deals with Abutilon theophrasti (ABUTH). Description: Herbicidal pre-emergence action, test C (Table C5). Particulars: dosage 1280 g/ha; visual scoring after about 3 weeks; 100% = plants have died, 0% = like control plants. The method in brief:
as §2

Experiment [6] concerns Stellaria media (STEME). The experiment can be described thus: Herbicidal pre-emergence action, test C (Table C8). Particulars: dosage 1280 g/ha; visual scoring after about 3 weeks; 100% = plants have died, 0% = like control plants. The procedure, abridged:
as §2

The subject of experiment [7] is Digitaria sanguinalis (DIGSA). The experiment can be described thus: Herbicidal pre-emergence action, test C (Table C10). To be noted: dosage 1280 g/ha; visual scoring after about 3 weeks; 100% = plants have died, 0% = like control plants. The procedure, abridged:
as §2

Experiment [8] deals with harmful plants ABUTH, AMARE, ECHCG, LOLRI, MATIN, POAAN, SETVI, STEME, ALOMY, DIGSA, KCHSC and VERPE. The experiment can be described thus: Herbicidal pre-emergence action (test C), summary of Tables C1-C12. Particulars: application rate of 1280 or 320 g of active ingredient per hectare; summary in words. The procedure, abridged: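 Pre-emergence pot test in sandy loam: WP or EC formulations were sprayed onto the covering soil with 0.5% additive at 600 L/ha water, at 1280 or 320 g/ha. Plants were kept in the greenhouse, and activity was rated visually about 3 weeks later as % versus untreated controls (100% = dead).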

The next experiment concerns Lolium rigidum (LOLRI). The experiment can be described thus: Herbicidal pre-emergence action, test C (Table C2). Particulars: dosage 1280 g/ha; visual scoring after about 3 weeks; 100% = plants have died, 0% = like control plants. The source says: Seeds of mono- and dicotyledonous weed plants were placed in plastic pots in sandy loam soil (doubly sown with one species each of mono- or dicotyledonous weed plants per pot) and covered with soil. The compounds of the invention, formulated in the form of wettable powders (WP) or as emulsion concentrates (EC), were then applied onto the surface of the covering soil as aqueous suspension or emulsion with addition of 0.5% additive at a water application rate of 600 liters per hectare (converted). After the treatment, the pots were placed in a greenhouse and kept under good growth conditions for the test plants. After about 3 weeks, the effect of the preparations was scored visually in comparison with untreated controls as percentages. For example, 100% activity=the plants have died, 0% activity=like control plants. Tables C1 to C12 below show the effects of selected compounds of the general formula (I) according to Table 1 on various harmful plants and an application rate corresponding to 1280 or 320 g/ha, which were obtained by the experimental procedure mentioned above.

Experiment [9] relates to Amaranthus retroflexus (AMARE). The experiment can be described thus: Herbicidal post-emergence action (Table B6). To be noted: visual rating about 3 weeks after treatment, 100% = plants have died, 0% = like control plants. The procedure, abridged:
(§3)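 Weeds grown from seed in sandy loam in the greenhouse were sprayed at the one-leaf stage, 2 to 3 weeks after sowing, with WP or EC formulations in water plus 0.5% additive at 600 L/ha. Rates corresponded to 1280 or 320 g/ha; damage was rated visually versus untreated controls after about 3 weeks.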

Another experiment has as its system Bassia scoparia (KCHSC). Description: Herbicidal post-emergence action (Table B11). Particulars: dosage 1280 g/ha; visual rating about 3 weeks after treatment; 100% = plants have died, 0% = like control plants. The method in brief:
as §3

Another experiment deals with Setaria viridis (SETVI). Description: Herbicidal pre-emergence action, test C (Table C4). Particulars: dosage 1280 g/ha; visual scoring after about 3 weeks; 100% = plants have died, 0% = like control plants. The method in brief:
as §2

Experiment [10] deals with Stellaria media (STEME). The experiment can be described thus: Herbicidal post-emergence action (Table B8). Particulars: dosage 1280 g/ha; visual rating about 3 weeks after treatment; 100% = plants have died, 0% = like control plants. The method in brief:
as §3

A further experiment deals with Poa annua (POAAN). The experiment can be described thus: Herbicidal pre-emergence action, test C (Table C3). To be noted: visual scoring after about 3 weeks, 100% = plants have died, 0% = like control plants. The procedure, abridged:
as §2

Experiment [11] has as its system Veronica persica (VERPE). Description: Herbicidal post-emergence action (Table B12). Particulars: visual rating about 3 weeks after treatment, 100% = plants have died, 0% = like control plants. The method in brief:
as §3

For experiment [12], the system named is Veronica persica (VERPE). The experiment can be described thus: Herbicidal pre-emergence action, test C (Table C12). To be noted: visual scoring vs untreated controls. The method in brief:
as §2

Turning to `Oc1ccc(-c2cc(C(F)F)no2)c(Oc2ccc(Cl)cn2)c1` [Example 1-42], the “herbicidal activity against the harmful plants of Tables A1-A8 in early post-emergence treatment” value in experiment [1] is “very good herbicidal activity”. Also, the “Early post-emergence effect against Agrostis tenuis (AGSTE)” value (from here on “Early post-emergence effect”) with Agrostis tenuis (AGSTE) is given as 80%.

For the molecule `Fc1cccc(Oc2ncc(C(F)(F)F)cc2Cl)c1-c1cc(C(F)F)on1` [Example 1-13], the “herbicidal activity against the harmful plants of Tables A1-A8 in early post-emergence treatment” value in experiment [1] is on record as “very good herbicidal activity”. Also, in the experiment on Agrostis tenuis (AGSTE), the “Early post-emergence effect” value is reported as 80%.

Turning to `Fc1cccc(Oc2ncc(Cl)cc2Cl)c1-c1cc(C(F)F)on1` [Example 1-12], the “herbicidal activity against the harmful plants of Tables A1-A8 in early post-emergence treatment” value in experiment [1] is listed as “very good herbicidal activity”. The “Early post-emergence effect” value with Agrostis tenuis (AGSTE) was 80%.

In the case of `Cn1nc(-c2c(F)cccc2Oc2ccc(Cl)cn2)cc1C(F)F` [Example 1-64], in experiment [2], the “herbicidal activity against the harmful plants of Tables B1-B12 in post-emergence treatment” value was “very good herbicidal activity”. The “Pre-emergence action against Amaranthus retroflexus (AMARE)” value in experiment [3] (dosage 320 g/ha) and in experiment [3] (dosage 1280 g/ha) was 100% throughout. Besides, in experiment [4], the “Pre-emergence action against Matricaria inodora (MATIN)” value is on record as 90%. In [5], the “Pre-emergence action against Abutilon theophrasti (ABUTH)” value amounted to 90%. The “Pre-emergence action against Stellaria media (STEME)” value in the experiment with Stellaria media (STEME) [6] is given as 100%. For the same molecule, in [7], the “Pre-emergence action against Digitaria sanguinalis (DIGSA)” value amounted to 90%. Besides, in experiment [8], the “herbicidal activity against the harmful plants of Tables C1-C12 in pre-emergence treatment” value is “very good herbicidal activity”. Moreover, in the experiment with Lolium rigidum (LOLRI), the “Pre-emergence action against Lolium rigidum (LOLRI)” value is listed as 90%. For the same molecule, the “Post-emergence action against Amaranthus retroflexus (AMARE)” value in experiment [9] (dosage 320 g/ha) and in experiment [9] (dosage 1280 g/ha) was 100% in each case. For the same molecule, in the experiment on Bassia scoparia (KCHSC), the “Post-emergence action against Bassia scoparia (KCHSC)” value is recorded as 90%. For the same molecule, in the experiment on Setaria viridis (SETVI), the “Pre-emergence action against Setaria viridis (SETVI)” value was 100%. Further, in the experiment with Stellaria media (STEME) [10], the “Post-emergence action against Stellaria media (STEME)” value was 100%. The results for the “Pre-emergence action against Poa annua (POAAN)” value with Poa annua (POAAN) (dosage 320 g/ha) and with Poa annua (POAAN) (dosage 1280 g/ha) were 90% and 100%, respectively. The “Post-emergence action against Veronica persica (VERPE)” value in the experiment with Veronica persica (VERPE) [11] (dosage 320 g/ha) and with Veronica persica (VERPE) [11] (dosage 1280 g/ha) was 90% throughout. Moreover, the “Pre-emergence action against Veronica persica (VERPE)” value stood at 90% in the experiment with Veronica persica (VERPE) [12] (dosage 320 g/ha) and 100% in the experiment on Veronica persica (VERPE) [12] (dosage 1280 g/ha).

Consider `Cn1nc(C(F)F)cc1-c1c(F)cccc1Oc1ncc(Cl)cc1F` [Example 1-82], for which, in [1], the “herbicidal activity against the harmful plants of Tables A1-A8 in early post-emergence treatment” value is on record as “very good herbicidal activity”. The “Early post-emergence effect” value with Agrostis tenuis (AGSTE) amounted to 80%.

On to `Fc1ccc(Oc2ccc(Cl)cn2)c(-c2cc(C(F)F)on2)c1` [Example 1-30], for which the “herbicidal activity against the harmful plants of Tables A1-A8 in early post-emergence treatment” value in experiment [1] is reported as “very good herbicidal activity”. For the same molecule, in the experiment on Agrostis tenuis (AGSTE), the “Early post-emergence effect” value came to 80%.

Regarding `FC(F)(F)c1cccc(-c2ccccc2Oc2ccccn2)n1` [Example 1-50], the “herbicidal activity against the harmful plants of Tables A1-A8 in early post-emergence treatment” value in experiment [1] is reported as “very good herbicidal activity”. The “Early post-emergence effect” value in the experiment on Agrostis tenuis (AGSTE) was found to be 80%.
